Experimental data published in patent publication US10925261B2, “Method for inducing feminization in Tilapia aurea via immersion with ethinyl estradiol” (GALLANT OCEAN INTERNATIONAL, INC., priority 2018, dated 2021).

Tested on: Tilapia aurea fry
Test: Induction of feminization in Tilapia aurea fry via immersion treatment with ethinyl estradiol
Format: in vivo
Settings: 3 minutes, 25° C., 3 dph fry
Procedure: Males and females of Tilapia aurea (about 12 months of age) provided by Prof. Chien-Hsien Kuo from the Department of Aquatic Biosciences at National Chiayi University (Taiwan) served as the parent fish in the following example. The male and female fish were separately raised in concrete ponds provided with water maintained at 25° C. and about 6 mg/L of dissolved oxygen under natural light, and were provided with feed ad libitum. Mating was carried out with a male-to-female ratio of 2:5. Fertilized eggs were flushed out from the oral cavity of the female fish to be collected, followed by incubation at 25° C. for 7 to 14 days. 3 dph fish fry were obtained.
Two immersion solutions respectively having ethinyl estradiol concentrations shown in Table 1 below were each prepared as follows. An appropriate amount of ethinyl estradiol was dissolved in 10 mL of ethanol, followed by mixing with 5 L of water in a water tank.
5 trials of feminization induction were conducted using a respective one of the two immersion solutions. Specifically, for each trial of feminization induction, the 3 dph Tilapia aurea fry (the amount thereof is shown in Table 1) were placed in the respective immersion solution at 25° C. for 3 minutes. […] After seven months of breeding, the gender of all the surviving fish was observed, and the feminization rate (i.e. the percentage of females) was calculated.

With `C#C[C@]1(O)CC[C@H]2[C@@H]3CCc4cc(O)ccc4[C@H]3CC[C@@]21C` [ethinyl estradiol] the “Feminization rate (%) (percentage of females)” value (immersion 142.85 ppm, gender observed after seven months of breeding, trial 5) was 87% and the “Feminization rate of each trial” value (immersion 142.85 to 200 ppm, all 5 trials) was ≥ 87%.
